Entries after “also recorded” stand apart in the source; their conditions may differ.
Tests used:
lactate dehydrogenase B = test: Human fibroblast in vitro experiment, Western blot in CCD-18Co cells; format: cell-based; settings: 2.5 mM; CCD-18Co cells (human colon fibroblast); hypoxia
Description: (§1) Human Colon Fibroblast cell line, CCD-18-Co, was purchased from American Type Culture Collection (Manassas, VA, USA). The CCD-18Co cells were maintained in DMEM containing 10% fetal bovine serum (Life Technologies, Gaithersburg, MD, USA), 100 IU/ml penicillin, and 100 μg/ml streptomycin (Welgene, Daegu, South Korea).
(§2) To prepare whole cell lysate, cells were lysed with lysis buffer (1% NP-40, 0.25% sodium deoxycholate, 150 mM NaCl, 1 mM EDTA, 1% Triton X-100, 50 mM Tris-HCl (pH 7.4), 10% Glycerol) with protease inhibitor cocktail (Roche, Basel, Switzerland) and phosphatase inhibitors (NA3VO4 1 mM, NaF 100 mM). Then, protein concentration was measured using the Bicinchoninic acid (BCA) assay kit (Thermo Scientific, Waltham, MA). Whole cell or nuclear lysates were transferred onto polyvinylidene fluoride membranes (Merck Millipore, Billerica, MA, USA). After blocking in 5% non-fat milk (Bio-Rad, Hercules, CA, USA) for 1 h, the membranes were incubated overnight at 4° C. with primary antibody diluted in TBST containing 100 mM Tris-HCl (pH 7.5), 1.5 M NaCl, and 0.5% Tween-20 obtained from Sigma-Aldrich, to which 5% BSA and 0.1% sodium azide (Sigma-Aldrich) had been added. Specific primary antibodies to HIF-1α (1:1000), HIF-2α (1:1000), LDH-A (1:1000), LDH-B (1:1000), TLR-4 (1:1000), NF-κB (1:1000), VEGF (1:1000), α-tubulin (1:1000), Actin (1:1000), and GAPDH (1:5000). […]

TLR-4 = test: Western blot of TLR-4 in HepG2 cells; format: cell-based, Human; settings: 2.5 mM; HepG2 cells (liver epithelium); hypoxia
Description: as §1, with “Hepatocellular carcinoma” for “Colon Fibroblast”, “HepG2,” for “CCD-18-Co,”, “HepG2” for “CCD-18Co”, “RPMI 1640” for “DMEM”
as §2

hypoxia-mediated factors = test: Eye CID in vitro experiment, Western blot in ARPE-19 cells; format: cell-based, Human; settings: 2.5 mM; ARPE-19 cells (retinal pigment epithelium); normoxia and hypoxia
Description: as §1, with “retinal pigment epithelium” for “Colon Fibroblast”, “ARPE-19,” for “CCD-18-Co,”, “ARPE-19” for “CCD-18Co”, “RPMI1640” for “DMEM”
as §2

[1] = tested on: collagen-induced rheumatoid arthritis mice; test: Rheumatoid arthritis model, Type II collagen induction; format: in vivo, DBA1/J mice; settings: 21 days after treatment
Description: Animals. […] Six-week old male DBA1/J mice were obtained from Japan SLC Inc. (Shizuoka, Japan) and bred under specific-pathogen-free (SPF) conditions. All animals were maintained in a 12-hour light/dark cycle at 22-25° C. with free access to food and water.
Preparation of agents. Two mg/mL Type II collagen was mixed with the same volume of complete Freund's adjuvant (CFA) for primary induction of rheumatoid arthritis. Two mg/mL Type II collagen was mixed with the same volume of incomplete Freund's adjuvant (IFA) for secondary induction of rheumatoid arthritis.
Primary induction: 0.1 mL of the mixed solution (Type II collagen+CFA) was injected subcutaneously into the area of 1.5 cm from the base of tail of mice. The administration site and depth were the same in all mice.
Secondary induction: 21 days after primary induction, 0.1 mL of the mixed solution (Type II collagen+IFA) was injected subcutaneously into the area of 1.5 cm from the base of tail of mice. The administration site and depth were the same in all mice.
Histological analysis. The mice foot and knee joint were dissected and fixed (4% paraformaldehyde) and decalcified for 2 days at 4° C. […] Mount with mounting medium.

[2] = tested on: Indomethacin-induced Crohn's disease rats; test: Crohn's disease model, oral Indomethacin; format: in vivo, Sprague-Dawley (SD) rats; settings: Four-week after treatment
Description: (§3) Animals. […] Six-week old male Sprague-Dawley (SD) rats were obtained from Samtako Co. (Osan, Gyeonggi-do, Republic of Korea) and bred under specific-pathogen-free (SPF) conditions. All animals were maintained in a 12-hour light/dark cycle at 22-25° C. with free access to food and water.
(§4) Agents and animal model. To induce Crohn's disease and colitis, Indomethacin was purchased from Sigma Chemical (St. Louis, Missouri, USA) and was dissolved in saline. […] Two models of inflammatory bowel disease were used. Crohn's disease was induced by oral administration of Indomethacin (7 mg/kg), and colitis was induced by subcutaneous injections of Indomethacin (7 mg/kg) daily at a 24 h intervals (FIGS. 40 and 42).
(§5) Histological analysis. The fixed flat-mounts were dehydrated in a graded series of ethanol and embedded in paraffin.

[3] = tested on: Indomethacin-induced colitis rats; test: Colitis model, subcutaneous Indomethacin; format: in vivo, Sprague-Dawley (SD) rats; settings: Four-week after treatment
Description: as §3, §4, §5

[4] = tested on: nonalcoholic steatohepatitis (NASH) mice; test: Liver CID (NASH) in vivo experiment, methionine-choline deficient (MCD) diet; settings: 2 mg/kg subcutaneous B.I.D
Description: Female 5-week-old C57BL/6 mice were purchased form KOATEC (Pyeongtaek, South Korea) and were fed Methionine-Choline diet (MCD) for 4 weeks. When the mice weighed 15 g each, the mice were autopsied randomly to identify nonalcoholic steatohepatitis (NASH).
Mouse liver tissues (n=5) were dissected and fixed in 4% paraformaldehyde PBS solution for 15 h at 4° C. Fixed liver tissues were embedded in paraffin and sectioned at 10 μm. Slides were incubated at 55° C. for 2 h, and subsequently deparaffinized in xylene and rehydrated in a graded ethanol series and used for hematoxylin (Merck, Darmstadt, Germany) and eosin (H&E) staining (35). Paraffin sections (10 μm thick) stained with H&E were imaged using a Leica DM 1000 LED microscope (Leica Microsystems, Wetzlar, Germany).
Mouse liver tissues (n=5) were dissected and fixed in 4% paraformaldehyde PBS solution for 15 h at 4° C. Fixed tissues were embedded in paraffin and sectioned at 5 mm. Slides were incubated at 55° C. for 2 h, and subsequently deparaffinized in xylene and rehydrated in a graded ethanol series and re-fix in Bouin's solution for 1 hr at 56° C., remove the yellow color to rinse running tap water for 5-10 min and stained Biebrich scarlet-acid fuchsin solution for 5 min then in phosphomolybdic-phosphotungstic acid solution (ratio 1:1) for 30 minutes, and aniline blue solution and stain for 15 minutes. Rinse briefly in distilled water and in 1% acetic acid solution for 2-5 min. […] Mount with mounting medium. Imaged using a Leica DM 1000 LED microscope (Leica Microsystems, Wetzlar, Germany).
Animal Model for liver diseases. […] Female 5-week-old C57BL/6 mice were purchased form KOATEC (Pyeongtaek, South Korea) and were fed Methionine-Choline (MCD) diet for 4 weeks. […] Histological analysis. Mouse Liver tissues (n=5) were dissected and fixed in 4% paraformaldehyde PBS solution for 15 h at 4° C. Fixed liver tissues were embedded in paraffin and sectioned at 10 μm. Slides were incubated at 55° C. for 2 h, and subsequently deparaffinized in xylene and rehydrated in a graded ethanol series and used for hematoxylin (Merck, Darmstadt, Germany) and eosin (H&E) staining. Paraffin sections (10 μm thick) stained with H&E were imaged using a Leica DM 1000 LED microscope (Leica Microsystems, Wetzlar, Germany
Masson Trichrome Stain. Mouse Liver tissues (n=5) were dissected and fixed in 4% paraformaldehyde PBS solution for 15 h at 4° C. Fixed tissues were embedded in paraffin and sectioned at 5 mm. Slides were incubated at 55° C. for 2 h, and subsequently deparaffinized in xylene and rehydrated in a graded ethanol series and re-fix in Bouin's solution for 1 hr at 56° C., remove the yellow color to rinse running tap water at 5-10 min and stained Biebrich scarlet-acid fuchsin solution for 5 min than in phosphomolybdic-phosphotungstic acid solution (ratio 1:1) for minutes, and aniline blue solution and stain for 15 minutes. Rinse briefly in distilled water and in 1% acetic acid solution for 2-5 minutes. […] Mount with mounting medium. Imaged using a Leica DM 1000 LED microscope (Leica Microsystems, Wetzlar, Germany).
To induce NASH, mice were fed methionine-choline deficient (MCD) diet with polyunsaturated fat for 8 weeks. […] Results are MEAN±SD.

## CC(O)C(=O)[O-].CC(O)C(=O)[O-].[Ca+2] (stereo not drawn) [calcium lactate]
Lactate dehydrogenase B
  lactate dehydrogenase B, Western blot: increased
TLR-4
  inflammatory factor (TLR-4), Western blot: decreased
hypoxia-mediated factors
  hypoxia-mediated factors, Western blot: decreased
[1]; 2 mg/kg daily subcutaneous
  inflammatory edema in the toes and knee joint: clearly decreased
[1]
  morphology of toes and knee joint vs. normal control: morphologically recovered
[2]; 2 mg/kg daily subcutaneous
  transmural inflammation and linear ulceration in the intestinal tissues: clearly decreased
[2]
  morphology of intestinal tissues vs. normal control: morphologically recovered
[3]; 2 mg/kg daily subcutaneous
  Superficial ulceration, polyp, and inflammation in the intestinal tissues: clearly decreased
[3]
  morphology of intestinal tissues vs. normal control: morphologically recovered
[4]; Masson trichrome
  liver fibrosis (collagen accumulation): not present
[4]; P<0.001 vs. MCD
  serum alanine aminotransferase (ALT): significantly decreased
  serum aspartate aminotransferase (AST): significantly decreased
[4]; histology
  immune cell infiltration in the liver: decreased
  lipid droplets in the liver: not observed; also recorded: not present
  liver steatosis: prevented

— patent publication US12576107B2, “Methods of treating chronic inflammatory diseases” (METIMEDI PHARMACEUTICALS CO., LTD., priority 2018, dated 2026)
